How the values were obtained:
PIK3CD (Human) = PIK3CD (Human) (UniProt O00329); assay: Assessment of PIK3CD Kinase Activity
PIK3CG (human) = PIK3CG (human) (UniProt P48736); assay: Assessment of PIK3CG Kinase Activity
PIK3CA (human) = PIK3CA (human) (UniProt P42336); assay: Assessment of PIK3CA Kinase Activity
PIK3CA (human), sequence (P42336 whole entry, looked up): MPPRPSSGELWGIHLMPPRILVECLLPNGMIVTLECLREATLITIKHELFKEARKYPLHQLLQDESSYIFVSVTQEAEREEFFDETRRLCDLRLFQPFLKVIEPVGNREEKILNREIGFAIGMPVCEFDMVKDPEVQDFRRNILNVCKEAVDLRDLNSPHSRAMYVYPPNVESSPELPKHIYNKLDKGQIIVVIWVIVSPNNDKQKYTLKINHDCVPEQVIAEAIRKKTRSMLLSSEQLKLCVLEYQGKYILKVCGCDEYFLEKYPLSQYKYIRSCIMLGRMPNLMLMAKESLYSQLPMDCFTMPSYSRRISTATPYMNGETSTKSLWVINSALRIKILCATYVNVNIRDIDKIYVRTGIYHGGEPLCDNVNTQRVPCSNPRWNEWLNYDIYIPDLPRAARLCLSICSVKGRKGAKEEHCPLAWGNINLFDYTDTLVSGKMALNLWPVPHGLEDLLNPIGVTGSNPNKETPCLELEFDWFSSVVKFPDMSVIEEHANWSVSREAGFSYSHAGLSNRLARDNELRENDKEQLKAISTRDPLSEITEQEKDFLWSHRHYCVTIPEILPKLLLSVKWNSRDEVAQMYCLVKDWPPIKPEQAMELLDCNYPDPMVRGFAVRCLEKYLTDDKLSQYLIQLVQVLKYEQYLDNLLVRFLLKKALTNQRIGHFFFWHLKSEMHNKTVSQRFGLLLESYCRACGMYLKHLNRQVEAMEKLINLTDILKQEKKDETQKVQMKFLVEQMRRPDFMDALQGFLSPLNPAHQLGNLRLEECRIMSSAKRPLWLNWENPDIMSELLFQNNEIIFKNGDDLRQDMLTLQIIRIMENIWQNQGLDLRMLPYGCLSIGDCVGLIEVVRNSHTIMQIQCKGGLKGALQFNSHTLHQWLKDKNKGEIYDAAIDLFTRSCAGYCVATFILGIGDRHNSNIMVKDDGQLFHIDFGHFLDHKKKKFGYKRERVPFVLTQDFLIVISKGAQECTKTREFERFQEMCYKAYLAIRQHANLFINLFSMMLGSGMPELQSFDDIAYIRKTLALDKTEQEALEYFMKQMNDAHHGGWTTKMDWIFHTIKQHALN

PIK3CD (Human), sequence (O00329 whole entry, looked up): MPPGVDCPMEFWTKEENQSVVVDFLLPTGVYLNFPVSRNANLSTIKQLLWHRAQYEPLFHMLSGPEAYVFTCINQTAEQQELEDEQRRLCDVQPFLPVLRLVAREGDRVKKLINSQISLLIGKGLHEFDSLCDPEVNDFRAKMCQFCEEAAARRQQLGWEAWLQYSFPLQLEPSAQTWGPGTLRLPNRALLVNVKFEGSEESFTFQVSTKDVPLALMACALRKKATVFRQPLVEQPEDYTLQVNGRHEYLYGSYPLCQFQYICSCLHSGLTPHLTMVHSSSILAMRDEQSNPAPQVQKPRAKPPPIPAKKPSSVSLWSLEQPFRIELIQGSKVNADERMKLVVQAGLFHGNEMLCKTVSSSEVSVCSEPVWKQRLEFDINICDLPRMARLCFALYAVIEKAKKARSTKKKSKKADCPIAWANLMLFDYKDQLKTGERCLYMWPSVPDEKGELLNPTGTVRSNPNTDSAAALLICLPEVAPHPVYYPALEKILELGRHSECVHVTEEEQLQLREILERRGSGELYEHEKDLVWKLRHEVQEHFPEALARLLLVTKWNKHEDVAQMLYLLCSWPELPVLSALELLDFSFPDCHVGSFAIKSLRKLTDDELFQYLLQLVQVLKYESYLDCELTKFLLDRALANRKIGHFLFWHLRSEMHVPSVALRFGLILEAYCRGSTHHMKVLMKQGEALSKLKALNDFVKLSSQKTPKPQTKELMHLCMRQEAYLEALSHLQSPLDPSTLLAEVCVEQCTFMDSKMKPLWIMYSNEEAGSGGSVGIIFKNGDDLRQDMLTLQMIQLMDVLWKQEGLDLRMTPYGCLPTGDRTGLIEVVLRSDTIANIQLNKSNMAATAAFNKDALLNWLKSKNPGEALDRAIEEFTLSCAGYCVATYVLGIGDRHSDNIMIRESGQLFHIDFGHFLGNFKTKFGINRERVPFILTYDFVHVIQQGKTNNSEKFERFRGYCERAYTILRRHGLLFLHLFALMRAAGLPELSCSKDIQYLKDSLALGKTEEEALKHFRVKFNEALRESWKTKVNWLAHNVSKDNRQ
PIK3CG (human), sequence (P48736 whole entry, looked up): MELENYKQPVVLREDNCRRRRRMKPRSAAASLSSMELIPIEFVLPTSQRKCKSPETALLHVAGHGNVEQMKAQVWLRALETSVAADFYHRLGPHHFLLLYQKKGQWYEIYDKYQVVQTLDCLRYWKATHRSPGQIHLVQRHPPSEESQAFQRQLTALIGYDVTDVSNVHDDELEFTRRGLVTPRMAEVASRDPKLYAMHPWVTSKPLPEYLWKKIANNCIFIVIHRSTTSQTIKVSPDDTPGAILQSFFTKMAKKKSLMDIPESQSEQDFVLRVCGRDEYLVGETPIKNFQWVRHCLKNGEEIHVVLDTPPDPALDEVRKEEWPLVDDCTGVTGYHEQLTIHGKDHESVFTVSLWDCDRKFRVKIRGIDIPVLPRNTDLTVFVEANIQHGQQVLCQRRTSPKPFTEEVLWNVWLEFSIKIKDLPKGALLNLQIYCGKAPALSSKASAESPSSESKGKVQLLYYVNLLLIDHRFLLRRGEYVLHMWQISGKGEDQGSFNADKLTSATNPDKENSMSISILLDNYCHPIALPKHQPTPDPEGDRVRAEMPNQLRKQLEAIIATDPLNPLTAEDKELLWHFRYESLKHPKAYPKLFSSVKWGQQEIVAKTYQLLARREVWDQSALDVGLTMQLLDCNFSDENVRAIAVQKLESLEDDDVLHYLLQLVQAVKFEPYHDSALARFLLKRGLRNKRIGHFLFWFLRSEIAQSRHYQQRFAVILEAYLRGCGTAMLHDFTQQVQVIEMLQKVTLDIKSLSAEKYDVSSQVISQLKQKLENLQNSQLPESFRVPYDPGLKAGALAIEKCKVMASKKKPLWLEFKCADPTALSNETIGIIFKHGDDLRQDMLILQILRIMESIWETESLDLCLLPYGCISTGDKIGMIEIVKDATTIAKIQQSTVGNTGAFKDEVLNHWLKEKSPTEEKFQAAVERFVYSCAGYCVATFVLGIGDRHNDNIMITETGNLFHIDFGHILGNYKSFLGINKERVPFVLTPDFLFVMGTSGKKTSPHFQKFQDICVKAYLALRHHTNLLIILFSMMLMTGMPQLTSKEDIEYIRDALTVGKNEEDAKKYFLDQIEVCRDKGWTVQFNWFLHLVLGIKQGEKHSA

SMILES | IC50 (PIK3CD (Human)) | IC50 (PIK3CG (human)) | IC50 (PIK3CA (human))
C[C@H](Nc1nc(N)ncc1C#N)c1cc2cccc(-c3ccc(Cl)cc3)c2c(=O)n1-c1ccccc1 | < 100 nM | < 100 nM | –
C[C@H](Nc1nc(N)ncc1C#N)c1cc2cccc(-c3ccc(N(C)C)cc3)c2c(=O)n1-c1ccccc1 | < 100 nM | < 100 nM | –
C[C@H](Nc1nc(N)ncc1C#N)c1cc2cccc(Cl)c2c(=O)n1-c1c(F)cc(F)cc1F | 100 to 1000 nM | < 100 nM | > 10000 nM
C[C@H](Nc1nc(N)ncc1C#N)c1cc2cccc(-c3c[nH]nn3)c2c(=O)n1-c1ccccc1 | < 100 nM | < 100 nM | –
C[C@H](Nc1nc(N)ncc1-c1ccc(O)cc1)c1cc2cccc(Cl)c2c(=O)n1-c1ccccc1 | 100 to 1000 nM | < 100 nM | > 10000 nM
COc1ncc(-c2cccc3cc([C@H](C)Nc4nc(N)ncc4C#N)n(-c4ccccc4)c(=O)c23)s1 | < 100 nM | < 100 nM | –
C[C@H](Nc1nc(N)ncc1C#N)c1cc2cccc(-c3cccc(NS(C)(=O)=O)c3)c2c(=O)n1-c1ccccc1 | < 100 nM | < 100 nM | –
C[C@H](Nc1nc(N)ncc1-c1ccsc1)c1cc2cccc(Cl)c2c(=O)n1-c1ccccc1 | < 100 nM | < 100 nM | > 10000 nM
CCn1cc(-c2cccc3cc([C@H](C)Nc4nc(N)ncc4C#N)n(-c4ccccc4)c(=O)c23)ccc1=O | < 100 nM | < 100 nM | –
C[C@H](Nc1nc(N)ncc1C#N)c1cc2cccc(-c3ccc(S(N)(=O)=O)cc3)c2c(=O)n1-c1ccccc1 | < 100 nM | < 100 nM | –
C[C@H](Nc1nc(N)ncc1-c1ccncc1)c1cc2cccc(Cl)c2c(=O)n1-c1ccccc1 | 100 to 1000 nM | < 100 nM | > 10000 nM
CC(C)Oc1cncc(-c2cccc3cc([C@H](C)Nc4nc(N)ncc4C#N)n(-c4ccccc4)c(=O)c23)c1 | < 100 nM | < 100 nM | < 100 nM
C[C@H](Nc1nc(N)ncc1C#N)c1cc2cccc(O)c2c(=O)n1-c1ccccc1 | < 100 nM | < 100 nM | > 10000 nM
C[C@H](Nc1nc(N)ncc1C#N)c1cc2ccccc2c(=O)n1-c1ccccc1 | < 100 nM | < 100 nM | –
COc1cccc(-c2cccc3cc([C@H](C)Nc4nc(N)ncc4C#N)n(-c4ccccc4)c(=O)c23)n1 | < 100 nM | < 100 nM | > 10000 nM
Cc1cncc(-c2cccc3cc([C@H](C)Nc4nc(N)ncc4C#N)n(-c4cccc(F)c4)c(=O)c23)c1 | < 100 nM | < 100 nM | 100 to 1000 nM
COc1cncc(-c2cccc3cc([C@H](C)Nc4nc(N)ncc4C#N)n(-c4cccc(F)c4)c(=O)c23)c1 | < 100 nM | < 100 nM | 100 to 1000 nM
C[C@H](Nc1nc(N)ncc1C#N)c1cc2cccc(-c3ccc(F)cc3)c2c(=O)n1-c1ccccc1 | < 100 nM | < 100 nM | 100 to 1000 nM
Cc1cnc(-c2cnc(N)nc2N[C@@H](C)c2cc3cccc(Cl)c3c(=O)n2-c2ccccc2)s1 | 100 to 1000 nM | < 100 nM | > 10000 nM
Cc1nc(-c2cnc(N)nc2N[C@@H](C)c2cc3cccc(Cl)c3c(=O)n2-c2ccccc2)sc1C | 100 to 1000 nM | 100 to 1000 nM | > 10000 nM
COc1cc(-c2cccc3cc([C@H](C)Nc4nc(N)ncc4-c4cnc(OC)s4)n(-c4ccccc4)c(=O)c23)ccn1 | < 100 nM | < 100 nM | 100 to 1000 nM
C[C@H](Nc1nc(N)ncc1C#N)c1cc2cccc(Cl)c2c(=O)n1C1CCCCC1 | < 100 nM | < 100 nM | –
C[C@H](Nc1nc(N)ncc1C#N)c1cc2cccc(-c3ccnnc3)c2c(=O)n1-c1cccc(F)c1 | < 100 nM | 100 to 1000 nM | > 10000 nM

SMILES | IC50 (PIK3CD (Human)) | IC50 (PIK3CG (human)) | IC50 (PIK3CA (human))
C[C@H](Nc1nc(N)ncc1C#N)c1cc2cccc(Cl)c2c(=O)n1-c1ccc(OC(F)(F)F)cc1 | 100 to 1000 nM | 100 to 1000 nM | > 10000 nM
C[C@H](Nc1nc(N)ncc1C#N)c1cc2cccc(-c3cccc(S(N)(=O)=O)c3)c2c(=O)n1-c1ccccc1 | < 100 nM | < 100 nM | –
C[C@H](Nc1nc(N)ncc1C#N)c1cc2cccc(CC#N)c2c(=O)n1-c1ccccc1 | < 100 nM | < 100 nM | > 10000 nM
C[C@H](Nc1nc(N)ncc1C#N)c1cc2cccc(-c3ccc(NS(C)(=O)=O)cc3)c2c(=O)n1-c1ccccc1 | < 100 nM | < 100 nM | –
COc1cncc(-c2cccc3cc([C@H](C)Nc4nc(N)ncc4C(N)=O)n(-c4ccccc4)c(=O)c23)c1 | < 100 nM | < 100 nM | 100 to 1000 nM
Cc1cccc2cc([C@H](C)Nc3nc(N)ncc3C(F)(F)F)n(-c3cccc(F)c3)c(=O)c12 | < 100 nM | < 100 nM | > 10000 nM
Cc1ccc(-n2c([C@H](C)Nc3nc(N)ncc3C#N)cc3cccc(Cl)c3c2=O)cc1 | < 100 nM | < 100 nM | > 10000 nM
C[C@H](Nc1nc(N)ncc1C#N)c1cc2cccc(Cl)c2c(=O)n1-c1ccc(C#N)cc1 | – | 100 to 1000 nM | > 10000 nM
C[C@H](Nc1nc(N)ncc1C#N)c1cc2cccc(-c3ccc(C#N)cc3)c2c(=O)n1-c1ccccc1 | < 100 nM | < 100 nM | –
C[C@H](Nc1nc(N)ncc1-c1nccs1)c1cc2cccc(Cl)c2c(=O)n1-c1ccccc1 | < 100 nM | < 100 nM | –
C[C@H](Nc1nc(N)ncc1C#N)c1cc2cccc(-c3cncc(O)c3)c2c(=O)n1-c1ccccc1 | < 100 nM | < 100 nM | < 100 nM
C[C@H](Nc1nc(N)ncc1C#N)c1cc2cccc(Cl)c2c(=O)n1Cc1ccccc1 | < 100 nM | 100 to 1000 nM | > 10000 nM
C[C@H](Nc1nc(N)ncc1-c1cnn(C)c1)c1cc2cccc(Cl)c2c(=O)n1-c1ccccc1 | 100 to 1000 nM | < 100 nM | > 10000 nM
COc1cc(-c2cccc3cc([C@H](C)Nc4nc(N)ncc4C#N)n(-c4cccc(F)c4)c(=O)c23)ccn1 | < 100 nM | < 100 nM | 100 to 1000 nM
C[C@H](Nc1nc(N)ncc1-c1cccs1)c1cc2cccc(Cl)c2c(=O)n1-c1ccccc1 | < 100 nM | < 100 nM | > 10000 nM
C[C@H](Nc1nc(N)ncc1C#N)c1cc2cccc(-c3cncc(S(C)(=O)=O)c3)c2c(=O)n1-c1ccccc1 | < 100 nM | < 100 nM | –
C[C@H](Nc1nc(N)ncc1C#N)c1cc2cccc(-c3ccc4c(c3)OCO4)c2c(=O)n1-c1ccccc1 | < 100 nM | < 100 nM | –
C[C@H](Nc1nc(N)ncc1C#N)c1cc2cccc(-c3cncc(C(F)(F)F)c3)c2c(=O)n1-c1ccccc1 | < 100 nM | < 100 nM | –
COc1ccc(-c2cccc3cc([C@H](C)Nc4nc(N)ncc4C#N)n(-c4ccccc4)c(=O)c23)cc1 | < 100 nM | < 100 nM | –
COc1ncc(-c2cccc3cc([C@H](C)Nc4nc(N)ncc4C#N)n(C4CC4)c(=O)c23)cn1 | < 100 nM | 100 to 1000 nM | –
C[C@H](Nc1nc(N)ncc1C#N)c1cc2cccc(C#CCCC(=O)N3CCCC3)c2c(=O)n1-c1ccccc1 | < 100 nM | < 100 nM | –
C[C@H](Nc1nc(N)ncc1C#N)c1cc2cccc(-c3ccc(=O)n(CC4CC4)c3)c2c(=O)n1-c1ccccc1 | < 100 nM | < 100 nM | –

Second part, the compound after the results:

IC50 (PIK3CD (Human)) | IC50 (PIK3CG (human)) | IC50 (PIK3CA (human)) | SMILES
< 100 nM | < 100 nM | – | C[C@H](Nc1nc(N)ncc1C#N)c1nc2cccc(-c3ccnnc3)c2c(=O)n1-c1ccccc1
< 100 nM | < 100 nM | – | Cc1cncc(-c2cccc3cc([C@H](C)Nc4nc(N)ncc4C#N)n(-c4ccccc4)c(=O)c23)c1
< 100 nM | < 100 nM | – | C[C@H](Nc1nc(N)ncc1C#N)c1cc2cccc(-c3ccnc(NS(C)(=O)=O)c3)c2c(=O)n1-c1ccccc1
< 100 nM | < 100 nM | 100 to 1000 nM | Cc1cc(-c2cccc3cc([C@H](C)Nc4nc(N)ncc4C#N)n(-c4ccccc4)c(=O)c23)ccn1
< 100 nM | < 100 nM | – | C[C@H](Nc1nc(N)ncc1C#N)c1nc2cccc(-c3cnn(C)c3)c2c(=O)n1-c1ccccc1
< 100 nM | < 100 nM | – | Cc1cc(-c2cccc3cc([C@H](C)Nc4nc(N)ncc4C#N)n(-c4cccc(F)c4)c(=O)c23)ccn1
< 100 nM | < 100 nM | – | Cc1cc(-c2cccc3nc([C@H](C)Nc4nc(N)ncc4C#N)n(-c4ccccc4)c(=O)c23)ccn1
< 100 nM | < 100 nM | – | C[C@H](Nc1nc(N)ncc1C#N)c1cc2cccc(-c3cccc(C#N)c3)c2c(=O)n1-c1ccccc1
< 100 nM | < 100 nM | 100 to 1000 nM | C[C@H](Nc1nc(N)ncc1C#N)c1cc2cccc(-c3cccc(Cl)c3)c2c(=O)n1-c1ccccc1
< 100 nM | < 100 nM | < 100 nM | COc1cccc(-c2cccc3cc([C@H](C)Nc4nc(N)ncc4C#N)n(-c4ccccc4)c(=O)c23)c1
< 100 nM | < 100 nM | 100 to 1000 nM | C[C@H](Nc1nc(N)ncc1C#N)c1cc2cccc(-c3cccc(N(C)C)c3)c2c(=O)n1-c1ccccc1
< 100 nM | < 100 nM | – | CC(C)n1cc(-c2cccc3cc([C@H](C)Nc4nc(N)ncc4C#N)n(-c4ccccc4)c(=O)c23)ccc1=O
< 100 nM | < 100 nM | – | C[C@H](Nc1nc(N)ncc1C#N)c1cc2cccc(-c3ccc(=O)n(C)c3)c2c(=O)n1-c1ccccc1
< 100 nM | < 100 nM | – | C[C@H](Nc1nc(N)ncc1C#N)c1cc2cccc(-c3ccnc(N)c3)c2c(=O)n1-c1ccccc1
< 100 nM | < 100 nM | – | COc1ccc(-c2cccc3cc([C@H](C)Nc4nc(N)ncc4C#N)n(-c4ccccc4)c(=O)c23)cn1
< 100 nM | < 100 nM | – | Cc1ncc(-c2cccc3cc([C@H](C)Nc4nc(N)ncc4C#N)n(-c4ccccc4)c(=O)c23)s1
< 100 nM | < 100 nM | – | COc1cc(-c2cccc3nc([C@H](C)Nc4nc(N)ncc4C#N)n(-c4ccccc4)c(=O)c23)ccn1
< 100 nM | < 100 nM | – | C[C@H](Nc1nc(N)ncc1C#N)c1cc2cccc(-c3cnoc3)c2c(=O)n1-c1ccccc1
< 100 nM | < 100 nM | – | C[C@H](Nc1nc(N)ncc1C#N)c1cc2cccc(-c3cncc(F)c3)c2c(=O)n1-c1ccccc1

— the Kinase Knowledgebase extract (Sharma et al. 2016)
